Data as given in PMC7316778 (Nature Communications, 2020).
“And” between values parts separate entries of the source, which are not always exact repeats. Equal entries are not always repeated. Where two headings read alike, the source gives them in different places.

Tests used:
WT HL-60 cells = test: CD11b surface expression, PMA-induced macrophage differentiation; assay type: cell-based, human; settings: Figure 6d
CAMK2G (CaMKII gamma) = CAMK2G (CaMKII gamma) (Homo sapiens, UniProt Q13555); test: SelectScreen kinase assay
Procedure: (§1) Selectivity profiling assays were performed by the Invitrogen SelectScreen™ Services. […] The concentration of ATP was selected to be equal to the KM, unless indicated otherwise.

CLK3 = CLK3 (Homo sapiens, UniProt P49761); test: SelectScreen kinase assay
Procedure: as §1

CSNK1G3 (CK1 gamma 3) = CSNK1G3 (CK1 gamma 3) (Homo sapiens, UniProt Q9Y6M4); test: SelectScreen kinase assay
Procedure: as §1

FYN A = FYN A (Homo sapiens, UniProt P06241); test: SelectScreen kinase assay
Procedure: as §1

IRAK1 = IRAK1 (Homo sapiens, UniProt P51617); test: SelectScreen kinase assay
Procedure: as §1

MAP2K2 (MEK2) = MAP2K2 (MEK2) (Homo sapiens, UniProt P36507); test: SelectScreen kinase assay
Procedure: as §1

PAK6 = PAK6 (Homo sapiens, UniProt Q9NQU5); test: SelectScreen kinase assay; settings: 1 h, 1 μM WEL028, 1 h preincubation
Procedure: as §1

PHKG1 = PHKG1 (Homo sapiens, UniProt Q16816); test: SelectScreen kinase assay; settings: 1 h, 1 μM WEL028, 1 h preincubation
Procedure: as §1

PIK3CG (p110 gamma) = PIK3CG (p110 gamma) (Homo sapiens, UniProt P48736); test: SelectScreen kinase assay
Procedure: as §1

[1] = 1 h, 1 μM WEL028, 1 h preincubation

Sequence of CSNK1G3 (CK1 gamma 3) (Q9Y6M4 whole entry): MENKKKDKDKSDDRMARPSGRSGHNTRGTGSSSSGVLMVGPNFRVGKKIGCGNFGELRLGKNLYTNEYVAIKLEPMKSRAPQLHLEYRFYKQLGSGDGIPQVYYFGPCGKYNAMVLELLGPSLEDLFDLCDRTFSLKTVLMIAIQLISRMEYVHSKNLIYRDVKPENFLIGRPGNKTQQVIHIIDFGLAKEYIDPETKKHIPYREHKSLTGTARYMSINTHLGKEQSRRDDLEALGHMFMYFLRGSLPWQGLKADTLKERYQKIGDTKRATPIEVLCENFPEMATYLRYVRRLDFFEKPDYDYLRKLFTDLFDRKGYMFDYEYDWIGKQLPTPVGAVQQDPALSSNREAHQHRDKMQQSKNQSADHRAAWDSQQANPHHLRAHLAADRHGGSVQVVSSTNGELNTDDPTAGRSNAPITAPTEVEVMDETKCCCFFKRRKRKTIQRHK
Sequence of FYN A (P06241 whole entry): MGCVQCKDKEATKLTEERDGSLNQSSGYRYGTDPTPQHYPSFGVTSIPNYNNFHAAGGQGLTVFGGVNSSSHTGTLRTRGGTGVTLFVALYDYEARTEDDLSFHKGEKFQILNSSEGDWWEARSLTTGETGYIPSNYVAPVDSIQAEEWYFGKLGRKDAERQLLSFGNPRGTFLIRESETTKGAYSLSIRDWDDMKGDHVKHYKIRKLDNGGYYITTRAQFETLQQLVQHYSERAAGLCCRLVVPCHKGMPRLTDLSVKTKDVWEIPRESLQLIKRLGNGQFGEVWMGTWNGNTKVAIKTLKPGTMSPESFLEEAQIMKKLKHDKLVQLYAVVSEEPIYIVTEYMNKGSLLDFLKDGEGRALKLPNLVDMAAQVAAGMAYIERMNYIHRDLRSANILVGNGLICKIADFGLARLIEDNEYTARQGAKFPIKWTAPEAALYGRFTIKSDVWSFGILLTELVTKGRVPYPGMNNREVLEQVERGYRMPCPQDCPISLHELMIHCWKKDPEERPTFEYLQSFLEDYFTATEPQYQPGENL
Sequence of PIK3CG (p110 gamma) (P48736 whole entry): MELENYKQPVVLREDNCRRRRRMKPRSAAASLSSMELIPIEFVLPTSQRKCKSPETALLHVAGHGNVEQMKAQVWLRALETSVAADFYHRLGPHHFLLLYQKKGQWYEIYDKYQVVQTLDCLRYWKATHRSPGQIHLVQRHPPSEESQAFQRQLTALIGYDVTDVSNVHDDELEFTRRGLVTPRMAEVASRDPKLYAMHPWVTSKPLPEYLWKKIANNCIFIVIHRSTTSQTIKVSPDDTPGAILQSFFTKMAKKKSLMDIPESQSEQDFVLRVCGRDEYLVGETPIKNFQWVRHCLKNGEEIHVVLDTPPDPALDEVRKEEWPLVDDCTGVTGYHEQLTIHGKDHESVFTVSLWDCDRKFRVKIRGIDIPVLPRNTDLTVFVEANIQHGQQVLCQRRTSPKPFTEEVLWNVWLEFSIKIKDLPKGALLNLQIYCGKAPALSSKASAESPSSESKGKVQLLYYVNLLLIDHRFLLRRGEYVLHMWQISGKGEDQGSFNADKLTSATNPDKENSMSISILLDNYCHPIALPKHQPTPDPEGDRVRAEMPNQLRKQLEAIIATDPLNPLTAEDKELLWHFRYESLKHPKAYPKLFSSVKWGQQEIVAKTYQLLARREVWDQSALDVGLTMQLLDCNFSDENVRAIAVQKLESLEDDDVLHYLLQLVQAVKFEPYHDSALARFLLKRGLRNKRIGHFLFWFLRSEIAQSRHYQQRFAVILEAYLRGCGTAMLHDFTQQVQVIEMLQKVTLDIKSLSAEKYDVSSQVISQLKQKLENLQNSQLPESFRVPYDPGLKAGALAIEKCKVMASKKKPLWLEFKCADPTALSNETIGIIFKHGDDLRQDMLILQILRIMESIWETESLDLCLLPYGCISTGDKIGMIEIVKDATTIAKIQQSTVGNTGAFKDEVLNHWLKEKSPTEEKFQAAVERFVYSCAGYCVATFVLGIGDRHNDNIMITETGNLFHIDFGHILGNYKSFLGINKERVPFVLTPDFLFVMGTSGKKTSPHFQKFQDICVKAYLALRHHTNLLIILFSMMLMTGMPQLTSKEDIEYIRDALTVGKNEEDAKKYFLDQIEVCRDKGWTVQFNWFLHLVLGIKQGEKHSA
Sequence of IRAK1 (P51617 whole entry): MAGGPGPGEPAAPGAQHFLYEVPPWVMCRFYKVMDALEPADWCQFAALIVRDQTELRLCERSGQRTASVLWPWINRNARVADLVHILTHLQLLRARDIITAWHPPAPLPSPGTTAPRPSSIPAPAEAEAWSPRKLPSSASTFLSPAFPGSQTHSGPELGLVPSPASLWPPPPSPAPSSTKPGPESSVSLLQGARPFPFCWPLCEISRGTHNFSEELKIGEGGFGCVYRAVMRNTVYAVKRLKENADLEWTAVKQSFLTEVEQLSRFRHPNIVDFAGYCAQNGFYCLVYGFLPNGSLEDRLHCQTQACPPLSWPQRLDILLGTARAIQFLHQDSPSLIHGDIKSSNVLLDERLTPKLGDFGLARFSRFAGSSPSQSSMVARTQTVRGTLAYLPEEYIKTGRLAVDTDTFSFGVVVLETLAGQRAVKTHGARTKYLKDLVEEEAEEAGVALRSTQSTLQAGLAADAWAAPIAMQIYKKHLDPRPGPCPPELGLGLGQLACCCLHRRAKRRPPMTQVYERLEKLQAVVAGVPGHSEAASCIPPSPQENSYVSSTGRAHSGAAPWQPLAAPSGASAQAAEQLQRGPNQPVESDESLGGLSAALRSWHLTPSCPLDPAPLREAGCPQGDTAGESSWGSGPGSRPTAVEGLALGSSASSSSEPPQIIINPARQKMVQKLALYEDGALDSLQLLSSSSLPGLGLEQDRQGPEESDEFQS
Sequence of MAP2K2 (MEK2) (P36507 whole entry, species assumed): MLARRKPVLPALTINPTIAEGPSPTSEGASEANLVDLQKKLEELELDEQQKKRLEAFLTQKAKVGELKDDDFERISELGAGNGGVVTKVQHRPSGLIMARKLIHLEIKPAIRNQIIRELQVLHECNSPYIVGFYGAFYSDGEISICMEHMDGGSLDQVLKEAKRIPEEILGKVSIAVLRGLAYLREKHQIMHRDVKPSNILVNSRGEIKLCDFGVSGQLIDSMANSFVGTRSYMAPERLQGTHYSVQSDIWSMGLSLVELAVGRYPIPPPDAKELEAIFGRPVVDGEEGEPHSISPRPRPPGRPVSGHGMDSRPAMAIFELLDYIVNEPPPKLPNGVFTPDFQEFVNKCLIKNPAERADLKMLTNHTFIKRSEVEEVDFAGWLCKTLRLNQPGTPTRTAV
Sequence of CAMK2G (CaMKII gamma) (Q13555 whole entry): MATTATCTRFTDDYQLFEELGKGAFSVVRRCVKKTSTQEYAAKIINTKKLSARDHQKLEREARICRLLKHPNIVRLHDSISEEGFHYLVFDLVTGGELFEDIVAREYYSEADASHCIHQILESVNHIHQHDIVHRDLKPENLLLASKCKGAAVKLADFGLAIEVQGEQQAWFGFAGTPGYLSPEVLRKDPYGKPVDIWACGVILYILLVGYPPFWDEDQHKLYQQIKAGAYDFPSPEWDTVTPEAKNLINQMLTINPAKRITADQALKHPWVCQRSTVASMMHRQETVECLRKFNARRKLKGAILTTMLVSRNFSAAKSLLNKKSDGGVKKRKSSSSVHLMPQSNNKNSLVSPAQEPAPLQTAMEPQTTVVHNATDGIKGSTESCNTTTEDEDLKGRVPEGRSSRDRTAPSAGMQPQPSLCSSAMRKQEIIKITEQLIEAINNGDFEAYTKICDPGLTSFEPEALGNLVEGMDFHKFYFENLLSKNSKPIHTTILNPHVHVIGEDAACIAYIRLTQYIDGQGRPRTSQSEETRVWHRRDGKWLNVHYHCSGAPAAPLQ
Sequence of CLK3 (P49761 whole entry): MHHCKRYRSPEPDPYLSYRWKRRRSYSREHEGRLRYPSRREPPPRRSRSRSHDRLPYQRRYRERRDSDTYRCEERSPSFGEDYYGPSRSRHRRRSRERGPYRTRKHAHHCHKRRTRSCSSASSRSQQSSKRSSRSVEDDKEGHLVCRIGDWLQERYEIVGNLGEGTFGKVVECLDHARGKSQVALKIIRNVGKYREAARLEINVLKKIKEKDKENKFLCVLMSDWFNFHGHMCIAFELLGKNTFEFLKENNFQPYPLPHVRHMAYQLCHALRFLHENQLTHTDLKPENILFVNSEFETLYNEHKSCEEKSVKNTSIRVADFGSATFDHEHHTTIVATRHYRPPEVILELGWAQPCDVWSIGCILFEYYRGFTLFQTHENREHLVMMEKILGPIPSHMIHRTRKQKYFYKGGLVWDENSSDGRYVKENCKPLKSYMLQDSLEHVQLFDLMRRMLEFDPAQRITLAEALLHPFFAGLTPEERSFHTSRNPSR
Sequence of PHKG1 (Q16816 whole entry): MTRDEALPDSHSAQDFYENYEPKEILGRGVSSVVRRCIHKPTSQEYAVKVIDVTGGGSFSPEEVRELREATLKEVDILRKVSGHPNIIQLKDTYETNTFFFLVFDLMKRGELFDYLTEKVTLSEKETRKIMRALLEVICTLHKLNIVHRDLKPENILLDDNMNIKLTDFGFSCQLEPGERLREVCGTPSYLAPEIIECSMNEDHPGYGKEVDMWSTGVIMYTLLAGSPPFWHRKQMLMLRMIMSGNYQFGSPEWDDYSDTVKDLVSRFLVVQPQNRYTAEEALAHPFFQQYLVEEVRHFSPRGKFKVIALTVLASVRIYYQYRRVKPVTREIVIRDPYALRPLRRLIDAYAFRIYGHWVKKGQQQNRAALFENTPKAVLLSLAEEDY

For `C#CCOc1ccc(Nc2ncc(Cl)c(Nc3ccccc3NC(=O)C=C)n2)c(OC)c1` [Compound 6], the “CD11b-positive cells (%)” value (WT HL-60 cells; WEL028 100 nM) was 79.481% and 79.680% and 76.989%, the “CD11b-positive cells (%)” value (WT HL-60 cells; WEL028 1 µM) was 1.972% and 1.548% and 2.205% and the inhibition at 1 µM (CAMK2G (CaMKII gamma); [1]) was 3%. The “Inhibition at 1 µM (%)” value (CAMK2G (CaMKII gamma); CAMK2G (CaMKII gamma), 1 µM, LanthaScreen Binding) was 13%, the inhibition at 1 µM (CLK3; [1]) was 11% and the “Inhibition at 1 µM (%)” value (CLK3; CLK3, 1 µM, ZLYTE, ATP Km app) was 23%. The “Inhibition (%)” value (CSNK1G3 (CK1 gamma 3); 1 μM WEL028, 1 h preincubation) was 0%, the “Inhibition at 1 µM (%)” value (CSNK1G3 (CK1 gamma 3); CSNK1G3 (CK1 gamma 3), 1 µM, ZLYTE, ATP Km app, listed as WEL028, 1 µM) was 3% and -2% and the inhibition at 1 µM (FYN A; [1]) was 3%. For the same compound, the “Inhibition at 1 µM (%)” value (FYN A; FYN A, 1 µM, LanthaScreen Binding, listed as WEL028, 1 µM) was -1% and 7%, the inhibition at 1 µM (IRAK1; [1]) was 26% and the “Inhibition at 1 µM (%)” value (IRAK1; IRAK1, 1 µM, Adapta, ATP Km app, listed as WEL028, 1 µM) was 31%. The inhibition at 1 µM (IRAK1; read-out: Inhibition at 1 µM (%), IRAK1, 1 µM, Adapta, ATP Km app) was 20%, the IC50 (MAP2K2 (MEK2)) was 251 nM and the inhibition at 1 µM (MAP2K2 (MEK2); [1]) was 106%. It also gave an inhibition at 10 µM (MAP2K2 (MEK2); 1 h, log[inhibitor] (M) -5.00, ZLYTE, ATP 100) of 104%, an inhibition at 3.311 µM (MAP2K2 (MEK2); 1 h, log[inhibitor] (M) -5.48, ZLYTE, ATP 100) of 103% and an inhibition at 1.122 µM (MAP2K2 (MEK2); 1 h, log[inhibitor] (M) -5.95, ZLYTE, ATP 100) of 99%. The inhibition at 0.3715 µM (MAP2K2 (MEK2); 1 h, log[inhibitor] (M) -6.43, ZLYTE, ATP 100) was 68%, the inhibition at 0.123 µM (MAP2K2 (MEK2); 1 h, log[inhibitor] (M) -6.91, ZLYTE, ATP 100) was 38% and the inhibition at 0.04074 µM (MAP2K2 (MEK2); 1 h, log[inhibitor] (M) -7.39, ZLYTE, ATP 100) was 33%. For the same compound, the inhibition at 0.0138 µM (MAP2K2 (MEK2); 1 h, log[inhibitor] (M) -7.86, ZLYTE, ATP 100) was 27%, the inhibition at 0.001514 µM (MAP2K2 (MEK2); 1 h, log[inhibitor] (M) -8.82, ZLYTE, ATP 100) was 16% and the inhibition at 0.0004898 µM (MAP2K2 (MEK2); 1 h, log[inhibitor] (M) -9.31, ZLYTE, ATP 100) was 10%. The inhibition at 0.004571 µM (MAP2K2 (MEK2); 1 h, log[inhibitor] (M) -[…], ZLYTE, ATP 100) was 20%, the Apparent fold selectivity (MAP2K2 (MEK2); IC50 on that kinase divided by IC50 on FES^S700C) was 54 fold and the inhibition at 1 µM (MAP2K2 (MEK2); read-out: Inhibition at 1 µM (%), MAP2K2 (MEK2), 1 µM, ZLYTE, ATP 100) was 109%. The inhibition at 1 µM (PAK6) was -7%, the inhibition at 1 µM (PHKG1) was -2% and the inhibition at 1 µM (PIK3CG (p110 gamma); [1]) was 13%. For the same compound, the “Inhibition at 1 µM (%)” value (PIK3CG (p110 gamma); PIK3CG (p110 gamma), 1 µM, Adapta, ATP Km app, listed as WEL028, 1 µM) was 18% and the inhibition at 1 µM (PIK3CG (p110 gamma); read-out: Inhibition at 1 µM (%), PIK3CG (p110 gamma), 1 µM, Adapta, ATP Km app) was 9%.
